Patent US7569352B2, “Method for identifying modulators of the dioxin/aryl hydrocarbon receptor (AHR)” (InDex Pharmaceuticals AB, priority 2003, dated 2009)

Assays:
[1] = system: TFF2 mRNA expression; assay: RNA blot of TFF2 mRNA expression in mouse hepatoma cells exposed to TCDD; format: cell-based
Method: (§1) (A) RNA blot (30 μg total RNA) showing mRNA expression in mouse hepatoma cells of TFF2, CYP1A1 and the housekeeping gene GAPDH after exposure to increasing concentrations of TCDD. Mouse hepatoma cells were cultured in 6 cm petri dishes and exposed to TCDD dissolved in dimethyl sulfoxid (DMSO, 0.1% total volume) at concentrations indicated in the figure, or vehicle alone (“0 nM”) for 24 hours before cell harvest and RNA isolation. The band intensity of TFF2 (B) and CYP1A1 (C) was measured by Phosphor Imager analysis and normalized against expression of GAPDH. The numbers represent the fold increase of TFF2 and CYP1A1 mRNA expression compared to the corresponding vehicle-treated control.
(§2) (A) RNA blot (30 μg total RNA) showing mRNA expression in mouse hepatoma cells of TFF2, CYP1A1 and the housekeeping gene GAPDH after exposure to TCDD at increasing length of time. […] The band intensity of TFF2 (B) and CYP1A1 (C) was measured by Phosphor Imager analysis and normalized against expression of GAPDH. […]
(§3) The glandular part of mouse stomachs was removed and snap-frozen in liquid nitrogen. […] The filters were hybridized with specific 32P-labeled cDNA fragments and exposed to autoradiographic film and band intensity was quantified by Phosphoimager analysis (Fuji).

[2] = system: CYP1A1 mRNA expression; assay: RNA blot of CYP1A1 mRNA expression in mouse hepatoma cells exposed to TCDD; format: cell-based
Method: as §1, §2, §3

[3] = 10 nM TCDD, increasing length of time, vs vehicle
[4] = increasing concentrations of TCDD, 24 hours, vs vehicle (DMSO)

SMILES: Clc1cc2c(cc1Cl)Oc1cc(Cl)c(Cl)cc1O2 [TCDD, 2,3,7,8-tetrachlorodibenzo-p-dioxin]
- TFF2 mRNA expression normalized against GAPDH [1, 3]: time-dependent increase
- TFF2 mRNA expression normalized against GAPDH [1, 4]: concentration-dependent increase
- CYP1A1 mRNA expression normalized against GAPDH [2, 3]: time-dependent increase
- CYP1A1 mRNA expression normalized against GAPDH [2, 4]: concentration-dependent increase
